Here are results for three compounds from ChEMBL document CHEMBL1159374, “Callysponginol sulfate A, an MT1-MMP inhibitor isolated from the marine sponge Callyspongia truncata” (J Nat Prod, 2003).

Structures can show the parent of a compound that is named as a salt. Calls of active or inactive are those of the source. The calls are words filed in the database; no cut-off is given here.

In the assay the target is Matrix metalloproteinase-14 (Homo sapiens, UniProt P50281). Put plainly: Inhibition of truncated recombinant MT1-MMP expressed in Escherichia coli JM109 after 1 hr by fluorescence assay.

As usually defined, the IC50 is the midpoint of a concentration-inhibition curve. As to `CC(CC[C@@H](C)[C@H]1CC[C@H]2[C@@H]3C[C@H](OS(=O)(=O)O)[C@H]4C[C@H](OS(=O)(=O)O)[C@@H](OS(=O)(=O)O)C[C@]4(C)[C@H]3CC[C@]12C)C(C)(C)C` (stereo partly drawn) [HALISTANOL SULFATE], the half-maximal inhibitory concentration (IC50) is 25.2 µM.
Still for that read-out and setting: the figure for `CCCCCC/C=C\CCCCCCCCCCCCC#C[C@@H](OS(=O)(=O)O)C(=O)O` [CALLYSPONGINOL SULFATE A] is 31.2 µM.
Take `CCCCCC/C=C\CCCCCCCCCCCCC#C[C@@H](O)C(=O)O`: the result was inactive.
